Measured values published in the supplement of paper PMC10307832.

Legend:
Experiment in all cases: relative viability (nuclei count vs DMSO), 5 days (fraction); higher = more cells survive
[1] = compound: Cn1nnc2c(C(N)=O)ncn2c1=O [Temozolomide] + Cc1cc(Nc2cc(N3CCN(C)CC3)nc(Sc3ccc(NC(=O)C4CC4)cc3)n2)n[nH]1 [Tozasertib] (partner 0.1 µM)
In short: (§1)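 Nuclei were stained with Hoechst during a one-step fixation (final 0.05% Triton X-100, 1% formaldehyde, 1 ug/ml Hoechst) carried out 5 days after dosing, then counted on 4× images. The cells, lung cancer lines in 1536-well plates, had been dosed by pin tool the day after seeding with one drug alone or a fixed anchor-drug dose plus five library-drug doses (not always all listed) in √10 steps. Relative viability is the nuclei count in treated wells divided by that in vehicle wells, and each value is the median of duplicate plates.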

[2] = compound: Cn1nnc2c(C(N)=O)ncn2c1=O [Temozolomide] + O=C(CCCCCCC(=O)Nc1ccccc1)NO [Vorinostat] (partner 1 µM)
In short: as §1

AZD5582 + Decitabine = compound: C[C@@H](C(=O)N[C@@H](C1CCCCC1)C(=O)N2CCC[C@H]2C(=O)N[C@@H]3[C@@H](CC4=CC=CC=C34)OCC#CC#CCO[C@@H]5CC6=CC=CC=C6[C@@H]5NC(=O)[C@@H]7CCCN7C(=O)[C@H](C8CCCCC8)NC(=O)[C@H](C)NC)NC [AZD5582] + Nc1ncn([C@H]2C[C@H](O)[C@@H](CO)O2)c(=O)n1 [Decitabine] (partner 2 µM)
In short: as §1

AZD5582 + Crizotinib = compound: C[C@@H](C(=O)N[C@@H](C1CCCCC1)C(=O)N2CCC[C@H]2C(=O)N[C@@H]3[C@@H](CC4=CC=CC=C34)OCC#CC#CCO[C@@H]5CC6=CC=CC=C6[C@@H]5NC(=O)[C@@H]7CCCN7C(=O)[C@H](C8CCCCC8)NC(=O)[C@H](C)NC)NC [AZD5582] + C[C@@H](Oc1cc(-c2cnn(C3CCNCC3)c2)cnc1N)c1c(Cl)ccc(F)c1Cl [Crizotinib] (partner 1 µM)
In short: as §1

Cell Line | relative viability ([1]; first compound 0.2 µM) | relative viability ([1]; first compound 0.6325 µM) | relative viability ([1]; first compound 2 µM) | relative viability ([1]; first compound 6.325 µM) | relative viability ([1]; first compound 20 µM) | relative viability ([2]; first compound 0.2 µM) | relative viability ([2]; first compound 0.6325 µM) | relative viability ([2]; first compound 2 µM) | relative viability ([2]; first compound 6.325 µM) | relative viability ([2]; first compound 20 µM) | relative viability (AZD5582 + Decitabine; first compound 0.001581 µM) | relative viability (AZD5582 + Decitabine; first compound 0.005 µM) | relative viability (AZD5582 + Decitabine; first compound 0.01581 µM) | relative viability (AZD5582 + Decitabine; first compound 0.05 µM) | relative viability (AZD5582 + Crizotinib; first compound 0.001581 µM) | relative viability (AZD5582 + Crizotinib; first compound 0.005 µM) | relative viability (AZD5582 + Crizotinib; first compound 0.01581 µM) | relative viability (AZD5582 + Crizotinib; first compound 0.05 µM)
201T | 1.01 | 0.888 | 0.987 | 0.943 | 0.914 | 0.942 | 0.939 | 1.04 | 0.91 | 0.867 | 0.866 | 0.913 | 0.856 | 1.02 | 1.09 | 1.12 | 1.04 | 1.25
A549 | – | – | – | – | – | – | – | – | – | – | 0.214 | 0.271 | 0.211 | 0.263 | 0.504 | 0.923 | 0.667 | 0.826
A-427 | 0.201 | 0.206 | 0.219 | 0.152 | 0.157 | 0.883 | 0.896 | 0.837 | 0.685 | 0.569 | 0.496 | 0.582 | 0.573 | 0.53 | 0.623 | 0.751 | 0.97 | 0.618
ABC-1 | 0.158 | 0.138 | 0.196 | 0.164 | 0.218 | 1.48 | 0.771 | 0.907 | 1.21 | 1.08 | 1.06 | 1.08 | 0.931 | 1.36 | 0.737 | 0.863 | 1.04 | 0.919
BEN | 0.465 | 0.5 | 0.415 | 0.526 | 0.436 | 0.567 | 0.558 | 0.652 | 0.58 | 0.552 | 0.699 | 0.668 | 0.683 | 0.62 | 0.658 | 0.784 | 0.979 | 0.848
CAL-12T | 0.335 | 0.339 | 0.347 | 0.34 | 0.382 | 0.889 | 0.881 | 0.885 | 0.781 | 0.628 | – | – | – | – | – | 0.175 | 0.531 | 0.192
COR-L23 | 0.2 | 0.213 | 0.227 | 0.206 | 0.198 | 0.521 | 0.531 | 0.521 | 0.476 | 0.371 | 0.476 | 0.441 | 0.445 | 0.481 | 0.539 | 0.682 | 0.629 | 0.796
COR-L 105 | 0.342 | 0.386 | 0.453 | 0.378 | 0.371 | 0.769 | 0.645 | 0.922 | 0.837 | 0.7 | 0.666 | 0.724 | 0.632 | 0.723 | 0.667 | 0.82 | 0.684 | 0.817
Calu-6 | – | – | – | – | – | – | – | – | – | – | – | – | – | – | 0.432 | 0.384 | 0.837 | 0.336
ChaGo-K-1 | 0.263 | 0.209 | 0.3 | 0.191 | 0.226 | 0.85 | 0.724 | 0.719 | 0.738 | 0.733 | 0.545 | 0.579 | 0.509 | 0.597 | 0.988 | 1.1 | 1.13 | 1.23
EBC-1 | – | – | – | – | – | – | – | – | – | – | – | – | – | – | 0.178 | 0.233 | 0.181 | 0.208
EKVX | 0.256 | 0.395 | 0.385 | 0.335 | 0.42 | – | 0.745 | 0.691 | 0.794 | 0.395 | 0.351 | 0.377 | 0.294 | 0.385 | 0.713 | 0.9 | 0.753 | 0.96
EMC-BAC-2 | 0.326 | 0.309 | 0.274 | 0.255 | 0.314 | 0.831 | 0.628 | 0.454 | 0.398 | 0.437 | 0.892 | 0.97 | 0.887 | 0.841 | 0.637 | 0.551 | 0.682 | 0.236
EPLC-272H | 0.263 | 0.191 | 0.232 | 0.28 | 0.252 | 0.386 | 0.545 | 0.527 | 0.407 | 0.508 | 0.148 | – | 0.385 | 0.0824 | 0.187 | 0.131 | 0.746 | 0.0674
H3255 | – | 0.534 | 0.613 | 0.532 | 0.17 | – | 0.793 | 0.77 | 0.535 | 0.23 | 0.556 | 0.626 | 0.572 | 0.553 | 0.825 | 0.712 | 0.743 | 0.756
HARA | 0.0933 | 0.112 | 0.107 | 0.11 | 0.108 | 0.575 | 0.514 | 0.511 | 0.573 | 0.521 | 0.595 | 0.53 | 0.565 | 0.49 | 1.01 | 0.894 | 1.04 | 1
HCC-15 | 0.522 | 0.412 | 0.5 | 0.384 | 0.599 | 0.79 | 0.847 | 0.791 | 0.695 | 0.806 | 0.534 | 0.559 | 0.602 | 0.418 | 0.646 | 0.536 | 0.754 | 0.455
